{"source": "paper PMC10996005", "about": "“Identification and Development of Cyclic Peptide Inhibitors of Hypoxia Inducible Factors 1 and 2 That Disrupt Hypoxia-Response Signaling in Cancer Cells” (Journal of the American Chemical Society, 2024)", "key": {"[1]": {"system": "HIF-driven expression of YFP in T-REx-293 reporter cell line", "test": "HRE-YFP reporter assay in hypoxia", "format": "cell-based, human", "description": "Following in vitro characterization and optimization of binding, we next assessed the effect of our cyclic peptides in mammalian cells. A cell line with a stably integrated reporter was constructed, in which the expression of yellow fluorescent protein (YFP) was placed under the control of a HRE. Thus, hypoxia would be expected to increase YFP expression (and subsequent fluorescence) in these cells, whereas treatment with a cell-permeable HIF inhibitor would be expected to reduce this fluorescence signal. A fusion cassette was designed containing the YFP gene preceded by three copies of the HRE sequence. This cassette was stably integrated into T-REx-293 cells as previously described.[12] […] The effect of this compound on the viability of T-Rex-293 was assessed with no effect observed at doses up to 75 μM (Figure S9a). […] It should be noted that the relative activity of each compound in this assay will be a combination of its cell permeability and HIF-inhibiting activity. […] We therefore continued to further characterize the cell activity of the 4-iodo-phenylalanine derivative. […]\nGeneration of HRE-eYFP integrated cell line\nThe Flp-In System (Fisher) was used to generate a constitutive expression cell line that expresses eYFP under the control of the VEGF HRE. The coding sequence of the yellow fluorescent protein (eYFP) was cloned downstream of the VEGF HRE sequence in the pcDNA5 plasmid, such that the entire cassette was under the regulation of a Tet-On gene expression system. The plasmid was transfected into a human embryonic kidney cell line (Flp-In™-293) and integrated using the manufacturer’s protocol.\nActivity Assessment using Flp-In-HRE-eYFP cell line\nThe Flp-In-HRE-eYFP cells were plated on 24-well plates at 80% confluency and incubated overnight under normoxic conditions. The cells were then treated with different concentrations of compound and incubated for 18 hours under hypoxic conditions. After treatment, the cells were washed with PBS and lysed to extract the total cellular protein. The cell extract was cold centrifuged for 20 minutes at 14,000 RPM. An equal amount of the supernatant from each treatment was plated on a 96-well plate, and the emission of eYFP was measured using a microplate reader. […]"}, "[2]": {"system": "CAIX and VEGF genes in MCF-7 cells", "test": "qPCR of hypoxia-response genes in MCF-7 cells", "format": "cell-based", "details": "hypoxic MCF-7 cells, 50 μM, vs DMSO-treated hypoxic cells", "procedure": "The effect of our lead inhibitor on hypoxia-response signaling was measured by qPCR in cancer cell lines. Cells were treated with either 2 μM of an analogue of the HIF-2-specific inhibitor belzutifan, PT2399 (control), or 50 μM of cyclo-CRLII(4-iodo)F, incubated in hypoxia for […], and the levels of the hypoxia-response genes CAIX([41],[42]) and VEGF([43]) were measured by qPCR. We observed a 51% drop in CAIX transcription and a 43% drop in VEGF transcription in hypoxic MCF-7 (breast cancer) cells treated with 50 μM of cyclo-CRLII(4-iodo)F versus hypoxic MCF-7 cells treated with DMSO only (Figure 6e). […] We also observed a 49% drop in CAIX expression in hypoxic HeLa (cervical cancer) cells treated with cyclo-CRLII(4-iodo)F (Figure S9b). […] We observed a 35% drop in HIF-2-driven VEGF transcription in 786-O cells treated with 50 μM of cyclo-CRLII(4-iodo)F compared to a 50% decrease in 786-O cells treated with PT2399. […]\nRealtime PCR (qPCR) Assay\nCells were plated on 6cm dishes at 80% confluency and incubated overnight under normoxic conditions. The cells were then treated with compound and incubated for 18 hours in hypoxic conditions. After treatment, the cells were washed with PBS and lysed under hypoxic conditions. The total RNA was extracted from the cells using a commercial RNA extraction kit (Fisher Scientific) following the manufacturer's instructions. A commercial reverse transcription kit (Promega) was used to generate cDNA. The MyTaq™ Mix master mix and appropriate primers targeting CAIX and VEGF were used to perform the qPCR reaction using a qPCR machine (Bio-Rad)."}, "[3]": {"system": "CAIX in HeLa cells", "test": "qPCR of CAIX in HeLa cells", "format": "cell-based", "details": "hypoxic HeLa cells, vs DMSO-treated hypoxic cells", "procedure": "The effect of our lead inhibitor on hypoxia-response signaling was measured by qPCR in cancer cell lines. Cells were treated with either 2 μM of an analogue of the HIF-2-specific inhibitor belzutifan, PT2399 (control), or 50 μM of cyclo-CRLII(4-iodo)F, incubated in hypoxia for 24 h, and the levels of the hypoxia-response genes CAIX([41],[42]) and VEGF([43]) were measured by qPCR. We observed a 51% drop in CAIX transcription and a 43% drop in VEGF transcription in hypoxic MCF-7 (breast cancer) cells treated with 50 μM of cyclo-CRLII(4-iodo)F versus hypoxic MCF-7 cells treated with DMSO only (Figure 6e). […] We also observed a 49% drop in CAIX expression in hypoxic HeLa (cervical cancer) cells treated with cyclo-CRLII(4-iodo)F (Figure S9b). […] We observed a 35% drop in HIF-2-driven VEGF transcription in 786-O cells treated with 50 μM of cyclo-CRLII(4-iodo)F compared to a 50% decrease in 786-O cells treated with PT2399.\nFigure S9. (a) The effect of cyclo-CRLII(4-iodo)F on the viability of T-ReX-293 cells. […]\nThe Flp-In-HRE-eYFP cells were plated on 24-well plates at 80% confluency and incubated overnight under normoxic conditions. […] An equal amount of the supernatant from each treatment was plated on a 96-well plate, and the emission of eYFP was measured using a microplate reader. […]"}}, "note": "Where a SMILES comes first, the peptide text is derived from it. [ ]: non-standard residue; d: D form. Phe(4-I) = N[C@@H](Cc1ccc(I)cc1)C(=O)O", "data": [{"molecule": "CC[C@H](C)[C@@H]1NC(=O)[C@H](CC(C)C)NC(=O)[C@H](CCCNC(=N)N)NC(=O)[C@H](CS)NC(=O)[C@H](Cc2ccc(I)cc2)NC(=O)[C@H]([C@@H](C)CC)NC1=O", "note": "[cyclo-CRLII(4-iodo)F] (cyclo(CRLII[Phe(4-I)]))", "values": [{"measurement": "EC50", "setting": "[1]; T-REx-293 HRE-YFP reporter, 18 hours, read-out: EC50 for reduction in hypoxia-mediated YFP fluorescence", "result": "30.7 ± 2.1", "unit": "µM"}, {"measurement": "relative activity among the 9 most potent cyclo-CRLIIF derivatives on YFP expression", "setting": "[1]; T-Rex-293 HRE-YFP reporter", "result": "most active"}, {"measurement": "drop in CAIX transcription", "setting": "[2]", "result": 51, "unit": "%"}, {"measurement": "drop in VEGF transcription", "setting": "[2]", "result": 43, "unit": "%"}, {"measurement": "drop in CAIX expression", "setting": "[3]", "result": 49, "unit": "%"}]}]}
